From patent publication US9180163B2, “Parstatin peptides” (priority 2009, dated 2015) come the findings set out here.

Experiment [1] concerns HUVEC cells. In words: cellular uptake by fluorescence microscopy. The class given is cell-based, human. The following applies: FITC-labeled peptide. The method, then:
4′,6-Diamidino-2-phenylindole (DAPI) was used to stain nuclei of all cells. Cell fluorescence was imaged on a Nikon Eclipse TE2000-U microscope. FITC and DAPI were excited using 490-nm and 360-nm filters, respectively. The emission signals were sorted out using 514 and 460 filters for the FITC and DAPI, respectively. HUVEC cells were treated with 10 μM of parstatin (1-41)-FITC for different time intervals. […] FITC signal was detected as early as 5 min of cell exposure to parstatin (1-41)-FITC (FIG. 9C).

The test system of experiment [2] is HUVEC cells. As to the kind of experiment: cellular uptake of FITC-labeled peptides by flow cytometry. The class given is cell-based, human. The following applies: 30 min exposure. The method, then:
HUVEC cells in the exponential growth phase were exposed to various concentrations of parstatin (1-41)-FITC in serum-free medium containing 0.5% BSA. After incubation times ranging from 1 min to 60 min, cells were washed extensively. Washed cells were incubated for 10 min with trypsin at 37° C. to remove the cell surface-bound parstatin. Suspended cells were subsequently centrifuged, washed, and analyzed on FACS flow cytometer (EPICS XL-MCL; Coulter).
The uptake of a given parstatin (1-41)-FITC into cells was assessed by the change of the FITC-positive cell population compared with untreated control cell samples.
For orientation: Flow cytometry measures light scatter and fluorescence of single cells or particles in a stream.

The subject of experiment [3] is Erk1/2 (p42/44 MAPK) in HUVEC cells. As to the kind of experiment: Erk1/2 phosphorylation immunoblot (MAP kinase pathway). The following applies: pretreatment 1 h, 10 μM; stimulated by FBS, bFGF or VEGF. The class given is cell-based, human. The method, then:
The MAPK (Erk1/2, p42/44) cascade mediates mitogenesis. […] HUVEC cells were cultured in 35 mm tissue culture dishes. After reaching 80% confluency, cells were growth factor-starved and subsequently stimulated for 10 min with vehicle or indicated agents. In combination experiments, cells were pretreated with parstatin or other peptides for 10 to 60 min.
Attached cells were lysed with Laenmli sample buffer, resolved in 10% SDS-PAGE, and transferred to nitrocellulose membranes. Membranes were incubated with primary antibodies against phospho p42/44 mitogen-activated protein kinases (p-Erk1/2, New England Biolabs, UK) and p42/44 Erk1/2 (t-Erk1/2, New England Biolabs, UK). Membranes were then probed with secondary antibodies horseradish peroxidase-conjugated, and proteins were visualized by chemiluminescent detection.

The test system of experiment [4] is HUVEC cells. As to the kind of experiment: Fibrin gel in vitro angiogenesis assay. The class given is cell-based, human. The following applies: VEGF/bFGF-induced, 24 h; other peptides 10 μM. The method, then:
The ability of endothelial cells to form three-dimensional structures was analyzed using a Fibrin gel in vitro angiogenesis assay kit (Chemicon International Inc. Temecula, Calif.). Fibrin gels were formed in 48-well plates by mixing fibrinogen and thrombin solutions, according to manufacturer instructions. Cells (40,000 cells/well) were then added and cultured in medium containing 2% FBS for 18 h. After the addition of a second layer of fibrin gel, endothelial cells sandwiched within fibrin gels were cultured in serum-free medium containing 0.5% bovine serum albumin (BSA) and the combination of VEGF/bFGF for 24 h. Where indicated, parstatin (1-41) or other indicated peptides were added. Capillary-like network was photographed and measured.

Experiment [5] concerns HUVEC cells. In words: [3H]-thymidine incorporation (DNA synthesis). The following applies: serum, bFGF or VEGF; comparison peptides 10 μM. The class given is cell-based, human. The method, then:
The ability of parstatin (1-41) to inhibit DNA synthesis of endothelial cells was assessed in thymidine incorporation assays. HUVEC cells were grown until 60-80% confluent in 24-well plates. Cells were treated with indicated peptides in serum-free medium containing either 0.5% BSA, or VEGF, or bFGF, or medium containing 5% FBS, or epidermal growth factor (EGF), or heparin-binging EGF (HB-EGF) for 18 hours. All cells were pulsed with 0.5 μCi/ml [3H]-thymidine (ICN Biomedicals Inc., Irvine Calif.) for additional 6 h. Radioactivity incorporated into DNA was determined in liquid scintillation counter.
Background: Dividing cells build labelled thymidine or BrdU into new DNA.

Experiment [6] has as its system chick chorioallontoic membrane (CAM). The class given is in vivo. The following applies: 10 nmoles, 48 h. The procedure: The in vivo chick chorioallontoic membrane (CAM) angiogenesis model was used to evaluate the effect of parstatin (1-41) in angiogenesis. On incubation day 9 of fertilized chicken eggs, an O-ring (1 cm^2) was placed on the surface of the CAM and the vehicle or the indicated substances were placed inside this restricted area. After 48 h, CAMs were fixed in saline-buffered formalin, photographed, and analyzed using the Scion Image software (Scion Image Release Beta 4.0.2 software; Scion Corporation, Frederick, Md.). Image analysis was performed on at least 18 eggs for each group. Vessel number and length were evaluated by pixel counting, and the results expressed as mean percentage of control ±SE. Statistical analyses were performed using a Student's t test.

Experiment [7] deals with HUVEC cells. As to the kind of experiment: MTT cell proliferation assay. The class given is cell-based, human. The method, then: Cell proliferation was evaluated using a 3-(4,5-[…])-2,5-diphenyltetrazolium bromide (MTT, Sigma-Aldrich, St. Louis, Mo.) assay. Endothelial cells (10,000/well) were seeded in 24-well tissue culture plates and incubated with growth medium for 24 h. Cells were then treated with the vehicle or the indicated peptides in medium containing 5% FBS for 1 to 3 days. After 24, 48, or 72 hours, MTT solution (5 mg/ml) was added to each well and incubated for 3 h at 37° C. The blue formazan crystals were solubilized by addition of DMSO and absorbance at 450 nm was recorded using a 96-well plate reader.

In experiment [8] the test system is HUVEC cells. As to the kind of experiment: modified Boyden's chamber cell migration assay. The class given is cell-based, human. The following applies: toward 5% FBS, 6 h; other peptides 10 μM. The procedure: HUVEC cell migration was assessed using a modified Boyden's chamber assay, i.e., in Transwell cell culture chambers (Corning Life Sciences, Acton, Mass.). Briefly, polycarbonate filters with 8 μm pores were used to separate the upper and the lower chambers. Cells were added to the upper compartment at a density of 10,000 cells/100 μl in serum-free medium containing 0.5% BSA and incubated for 6 h. Directional migration (chemotaxis) in the lower chamber was induced by addition of medium containing 5% FBS to the lower chamber. Where indicated parstatin or other peptides were added to lower chamber.
Cells on the filters were fixed and stained. The non-migrated cells (cells in upper surface) were removed by wiping with cotton swabs. The cells on the lower surface were counted manually under microscope in six predetermined fields. Parstatin (1-41) attenuated chemotactic cell migration through microporous membrane in response to serum (FIG. 3C). When human parstatin was combined with 5% FBS, the number of migrated cells was reduced in concentration-dependent manner.

The subject of experiment [9] is HUVEC cells. As to the kind of experiment: Matrigel capillary tube-like formation. The following applies: 5% FBS, 18 h, parstatin (1-41) 0.3 to 10 μM, other peptides 10 μM. The class given is cell-based, human. The procedure:
Primary human umbilical vein endothelial cells (HUVEC cells) were obtained from freshly delivered umbilical cords from caesarean births and were grown in M199 medium with 20% fetal bovine serum (FBS) supplemented with endothelial cell growth supplement and heparin. One of the most specific tests for angiogenesis is the measurement of the ability of endothelial cells to form capillary-like structures (i.e., tube formation). Tube formation is a multi-step process involving cell adhesion, migration and differentiation. Tube formation can be enhanced by use of Matrigel or fibrin clots to coat plastic culture dishes and it is an accepted model of angiogenesis.
Matrigel™ (Becton Dickinson Labware, N.J., USA) is a mixture of basement membrane components extracted from the Englebreth-Holm-Swarm tumor. […] Matrigel™ (250 μl) was added to each well of a 24-well plate and allowed to polymerize. A suspension of 40,000 HUVEC cells in M199 medium containing 5% FBS was added into each well coated with Matrigel™.
Cells were treated with increasing concentrations of human parstatin (1-41), scrambled parstatin, or parstatin (24-41) fragment. After 18 hours of incubation, the medium was removed, and the cells were fixed and stained, and tube-like structures were quantitated.

For experiment [10], the system named is corneas of Sprague-Dawley rats. As to the kind of experiment: corneal histopathology after chemical burn (vessels, neutrophils). The class given is in vivo, rat. The following applies: 2×100 μg, day 7. The method, then: After the above-described processes were performed, the rats were sacrificed (7 days) and the eyes were excised. All eyes were sectioned (4 μm) and stained with hematoxylin-eosin. Two independent pathologists, in a blinded manner, evaluated the microvessel density and the inflammatory cell infiltration in each slide. Total corneal vascular vessels and neutrophils were counted at 200× in seven representative stained tissue sections for each eye, covering all cornea area and having a similar distance from the central burn.

Experiment [11] relates to caspase-3 in HUVEC cells. As to the kind of experiment: caspase-3 activity colorimetric assay. The class given is cell-based, human. The following applies: 0.5% BSA, 24 h; mouse and scrambled 10 μM. The method, then:
To further support the involvement of caspases in parstatin (1-41) pro-apoptotic effect, its effect on caspase-3 activation was examined using a commercially available kit (Promega, Madison, Wis.). The colorimetric substrate, Ac-DEVD-p-nitroanilide, is cleaved by caspase-3 to release yellow p-nitroanilide, was measured by absorbance at 405 nm to detect caspase activation.
HUVEC cells were grown in 60 mm tissue culture plates until approximately 80% confluency. Cells were treated in absence or in presence of 0.5% BSA or bFGF for 24 h in serum-free medium. Suspended and adherent cells were collected and lysed. Caspase-3 activity was measured by absorbance at 405 nm.

Ends that are not written are not given here. * marks the point of attachment. FITC = O=C1OC2(c3ccc(O)cc3Oc3cc(O)ccc32)c2ccc(NC(=S)*)cc21

For “TRARRPESKATNATLDPRK-FITC (TRARRPESKATNATLDPRK(FITC); also: FITC linked to the C-terminal lysine; listed as Homo sapiens) [parstatin (24-41)-FITC, FITC conjugated to human parstatin (24-41) fragment]”, the “cell fluorescence in microscope images” value in experiment [1] is “no fluorescence was observed”. Besides, the “fraction of FITC-positive cell population” value in experiment [2] is “minimal and comparable with that of control cells”.
Turning to “LRTNASLLVPFLTARAKSSGTREAADPPRLMCLRPLARRCG (Scrambled synthetic peptide) [scrambled parstatin, reference compound]”, in experiment [3], the “activation of Erk1/2” value is “did not alter”. In addition, the “capillary-like network (total capillary tube length) in fibrin gels” value in experiment [4] was “did not affect”. The “DNA synthesis in HUVEC cells” value in experiment [5] is reported as “did not cause any significant effect”. Further, the “inhibition of the basal level of angiogenesis in CAMs” value in [6] is reported as “did not cause any significant effect”. Moreover, the HUVEC cell proliferation result in [7] (10 μM) was “without effect”. Also, the chemotactic cell migration entry in [8] is “without effect”. Moreover, the “tube formation on Matrigel” value in experiment [9] is “did not affect”. In experiment [10], the “mean number (density) of vascular vessels per section” value was determined as 77.17±3.11 and the numbers of neutrophils is 39±2.54 cells/corneal section. Besides, in experiment [11], the caspase-3 activity result was “without effect”.
As for “MGPRRLLIVALGLSLCGPLLSSRVPMSQPESERTDATVNPR [mouse parstatin, 1-41-amino acids cleaved N-terminal fragment of mouse PAR-1]”, the “activation of Erk1/2” value in [3] was “less pronounced effect”. Also, in experiment [4], the “capillary-like network (total capillary tube length) in fibrin gels” value is “less pronounced, but still significant, inhibitory effect”. Moreover, the “DNA synthesis in HUVEC cells” value in experiment [5] was “significant, but less effective inhibitory effect”. Further, the IC50 in experiment [7] (stimulus not given, read-out: half-maximal concentration, inhibiting cell proliferation) amounted to 20 µM. In experiment [8], the chemotactic cell migration entry is given as “significant inhibitory effect, but to a lower extent”. For the same substance, the “tube formation on Matrigel” value in experiment [9] is listed as “effective in inhibiting tube formation”; in experiment [9] (listed as mouse parstatin (1-41)) it was “less pronounced, but still significant, inhibitory effect”. Moreover, in experiment [11], the caspase-3 activity entry is on record as “moderate increase”.
